Like-named read-outs stand apart in the source and are kept apart here.

In general, IC50 refers to the concentration that gives 50% inhibition. In general, EC50 refers to the midpoint of the concentration-response curve. Read a low EC50 as greater potency.

The target of one assay is DGKz (Homo sapiens (Human), UniProt Q13574). Briefly: DGK ADP-Glo kinase assay (DGKz). It is filed as biochemical. The settings on record: 5 nM DGKz, 15 uM ATP. The method, then: Luminescence was recorded using an Tecan SPARK microplate reader.
(In general: ADP-Glo first removes unused ATP, then detects ADP through luciferase.)

The target of assay [1] is T1, DGKa (Homo sapiens (Human), UniProt P23743). Put plainly: biochemical.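 Note: biochemical DGK kinase assay, ADP-Glo luminescence from ADP made by phosphorylating 1,2-dioleoyl-sn-glycerol, 20 min compound preincubation then 40 min reaction at 25 °C, 1% DMSO control.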
Method: (§1) The DGKa and DGKz kinase assays were performed using Promega ADP-Glo kit (Promega, Cat #V9102). One microliter test compound was added to a 384-well plate. Reactions were performed in a 5 uL volume by adding 2 uL mixture of DGK enzyme and ATP in assay buffer (50 mM MOPS pH 7.5, 100 mM NaCl, 10 mM MgCl2, 1 mM CaCl2, 0.0025% BSA, and 1 mM DTT). […] The enzyme solution was incubated with test compound at 25 ? for 20 min. […] The reaction was initiated by the addition of 2 uL of substrate solution (7 uM 1.2-dioleoyl-sn-glycerol, 5 mM octyl-b-D-glucopyranoside) in the 5 uL assay volume. The resulting mixture was incubated at 25° C. for 40 minutes. Next, 5 uL of ADP-Glo-reagent was added to the plate and incubated for 40 minutes. Then 10 uL of kinase detection reagent was added and incubated for 30 minutes. Luminescence was recorded using an Tecan SPARK microplate reader. 1% DMSO vehicle was used as control and no enzyme well was used as blank well.
Assay [2] addresses T1, DGKa.
Method: as §1
The test system of another assay is PBMC. Put plainly: Human PBMC IL-2 assay. It is filed as cell-based. The settings on record: anti-CD3/CD28 stimulation overnight, IL-2 level. The method in brief:
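Healthy-donor frozen PBMC were thawed, rested 4 h at 37 °C and plated at ~200,000 cells/well. Cells were preincubated 60 min at 37 °C with compound solution (10 uM to 0.6 nM, 8 points, 4-fold, as added), then stimulated overnight with anti-CD3/CD28. Supernatant IL-2 was quantified by immunoassay kit and plotted against log compound concentration.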

Another assay deals with Jurkat cells. Put plainly: Jurkat IL-2 assay. It is filed as cell-based. As to conditions: Homo sapiens, anti-CD3/CD28 stimulation overnight, IL-2 level. In outline:
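Cells in RPMI-1640 with 10% FBS received compound solution (5 uM to 2.3 nM, 8 points, 3-fold dilution) for 60 minutes at 37° C. They were then stimulated overnight at 37° C. with anti-CD3/CD28 antibody. IL-2 in the supernatant was quantified by immunoassay kit and plotted against log compound concentration.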

T1 sequence (P23743 whole entry): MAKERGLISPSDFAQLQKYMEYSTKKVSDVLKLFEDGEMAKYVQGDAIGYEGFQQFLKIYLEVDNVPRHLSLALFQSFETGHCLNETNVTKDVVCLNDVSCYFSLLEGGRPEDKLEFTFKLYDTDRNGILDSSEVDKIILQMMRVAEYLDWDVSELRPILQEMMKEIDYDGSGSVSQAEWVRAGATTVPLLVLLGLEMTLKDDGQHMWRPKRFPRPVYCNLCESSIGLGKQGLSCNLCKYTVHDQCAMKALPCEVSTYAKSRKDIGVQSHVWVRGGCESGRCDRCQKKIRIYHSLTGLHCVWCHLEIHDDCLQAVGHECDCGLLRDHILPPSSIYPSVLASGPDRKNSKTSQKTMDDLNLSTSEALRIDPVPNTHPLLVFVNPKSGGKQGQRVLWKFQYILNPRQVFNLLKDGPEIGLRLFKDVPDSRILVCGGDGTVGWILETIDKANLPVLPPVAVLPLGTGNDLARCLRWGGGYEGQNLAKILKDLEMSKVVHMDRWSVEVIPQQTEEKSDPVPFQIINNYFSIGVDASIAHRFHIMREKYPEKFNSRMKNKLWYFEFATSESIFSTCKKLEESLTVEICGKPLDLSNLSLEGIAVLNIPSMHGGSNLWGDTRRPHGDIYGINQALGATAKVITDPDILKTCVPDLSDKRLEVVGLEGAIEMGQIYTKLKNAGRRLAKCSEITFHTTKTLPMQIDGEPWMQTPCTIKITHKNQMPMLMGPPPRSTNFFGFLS
Chain of DGKz (Q13574 whole entry): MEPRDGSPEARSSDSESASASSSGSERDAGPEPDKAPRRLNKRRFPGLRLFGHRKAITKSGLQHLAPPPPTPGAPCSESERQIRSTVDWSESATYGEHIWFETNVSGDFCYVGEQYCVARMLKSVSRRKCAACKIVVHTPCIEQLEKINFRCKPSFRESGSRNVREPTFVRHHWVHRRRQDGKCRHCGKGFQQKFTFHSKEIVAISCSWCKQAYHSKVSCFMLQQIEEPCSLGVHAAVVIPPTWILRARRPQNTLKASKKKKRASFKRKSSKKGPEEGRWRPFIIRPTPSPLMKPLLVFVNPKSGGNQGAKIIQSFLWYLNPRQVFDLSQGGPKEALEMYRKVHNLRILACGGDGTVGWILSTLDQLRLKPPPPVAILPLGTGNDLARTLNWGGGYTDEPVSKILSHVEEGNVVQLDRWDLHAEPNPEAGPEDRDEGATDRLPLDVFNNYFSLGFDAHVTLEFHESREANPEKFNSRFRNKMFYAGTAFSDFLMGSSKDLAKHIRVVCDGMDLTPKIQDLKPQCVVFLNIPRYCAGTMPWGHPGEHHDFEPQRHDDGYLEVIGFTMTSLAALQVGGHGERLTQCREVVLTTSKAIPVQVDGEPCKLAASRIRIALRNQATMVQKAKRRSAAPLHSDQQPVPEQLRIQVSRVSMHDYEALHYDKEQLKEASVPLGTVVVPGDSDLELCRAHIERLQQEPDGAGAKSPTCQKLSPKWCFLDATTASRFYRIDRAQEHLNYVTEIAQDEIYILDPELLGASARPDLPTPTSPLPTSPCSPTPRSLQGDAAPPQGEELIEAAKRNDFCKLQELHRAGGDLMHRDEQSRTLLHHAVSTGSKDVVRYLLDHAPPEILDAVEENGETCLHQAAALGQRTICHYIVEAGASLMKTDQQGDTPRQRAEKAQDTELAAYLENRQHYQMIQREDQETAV

On to `CC[C@@H]1CN(c2nc3nncn3c3ccc(C#N)nc23)[C@@H](C)CN1[C@H](CC)c1ccc(C(F)(F)F)cc1` (stereo in doubt) [Compound 82], for which the values for the IC50 against DGKz and at DGKa [1] were 454 nM and 2 nM, respectively.

Turning to `CC[C@H]1CN([C@@H](CC)c2ccc(S(F)(F)(F)(F)F)cc2)[C@H](CC)CN1c1nc(=O)n2c3c(cc(C#N)nc13)OCC2` (stereo in doubt) [Compound 83], the IC50 at DGKz was 124 nM; against DGKa [1], 23 nM.

For `CC[C@H]1CN([C@@H](C)c2ccc(S(F)(F)(F)(F)F)cc2)[C@H](CC)CN1c1nc2nncn2c2ccc(C#N)nc12` (stereo in doubt) [Compound 88], the figures for the IC50 against DGKz and on DGKa [1] were 38 nM and 18 nM, respectively.

Regarding `CC[C@H]1CN([C@H](C)c2ccc(S(F)(F)(F)(F)F)cc2)[C@H](CC)CN1c1nc2nncn2c2ccc(C#N)nc12` (stereo in doubt) [Compound 89], the values for the IC50 against DGKz and against DGKa [1] were 116 nM and 10 nM, respectively.

For the compound `CC[C@@H]1CN(c2nc3nncn3c3ccc(C#N)nc23)[C@@H](C)CN1[C@H](CC)c1ccc(S(F)(F)(F)(F)F)cc1` (stereo in doubt) [Compound 90], the IC50 against DGKz was found to be 404 nM; on DGKa [1], 10 nM.

On to `CC[C@H]1C[C@@H](c2nc3cc(C)ccc3o2)CCN1c1nc(=O)n(C)c2cc(O[C@H]3CCOC3)c(Cl)cc12` (stereo in doubt) [Compound 93], for which the IC50 is 130 nM at DGKz and 12 nM against DGKa [1].

As for `CC[C@@H]1C[C@@H](c2nc3cc(C)ccc3o2)CCN1c1nc(=O)n(C)c2cc(OC3CCOC3)c(Cl)cc12` (stereo in doubt) [Compound 96], the IC50 at DGKz came to 2820 nM; on DGKa [1] it was 4 nM.

Turning to `CC[C@H]1CN([C@H](CC)c2ccc(OC(F)(F)F)cc2)[C@H](CC)CN1c1nc2nncn2c2ccc(C#N)nc12` (stereo in doubt) [Compound 101], the results for the IC50 at DGKz and on DGKa [1] were 235 nM and 11 nM, respectively.

Turning to `CC[C@H]1CN([C@@H](CC)c2cccc(C(F)(F)F)c2)[C@H](CC)CN1c1nc2nncn2c2ccc(C#N)nc12` (stereo in doubt) [Compound 105], the IC50 against DGKz stood at 29 nM; on DGKa [1] it was 4 nM.

With `CC[C@H]1CN([C@H](CC)c2cccc(C(F)(F)F)c2)[C@H](CC)CN1c1nc2nncn2c2ccc(C#N)nc12` (stereo in doubt) [Compound 106], the IC50 was 555 nM against DGKz and 24 nM at DGKa [1].

Consider `CC[C@H]1CN([C@@H](CC)c2ccc(C(F)(F)F)nc2)[C@H](CC)CN1c1nc2nncn2c2ccc(C#N)nc12` (stereo in doubt) [Compound 111], for which the values for the IC50 against DGKz and against DGKa [1] were 18 nM and 7 nM, respectively.

Turning to `CC[C@H]1CN([C@H](CC)c2ccc(C(F)(F)F)nc2)[C@H](CC)CN1c1nc2nncn2c2ccc(C#N)nc12` (stereo in doubt) [Compound 112], the IC50 at DGKz was 183 nM; at DGKa [1] it was 11 nM.

`CC[C@H]1CN([C@@H](CC)c2ccc(OC)cc2F)[C@H](CC)CN1c1nc2nncn2c2ccc(C#N)nc12` (stereo in doubt) [Compound 115]: the values for the IC50 on DGKz and against DGKa [2] were 8 nM and 3 nM, respectively.

Turning to `CC[C@H]1CN([C@H](CC)c2ccc(OC)cc2F)[C@H](CC)CN1c1nc2nncn2c2ccc(C#N)nc12` (stereo in doubt) [Compound 116], the IC50 on DGKz was determined as 347 nM; on DGKa [2], 14 nM.

For `CC[C@H]1CN([C@H](c2ccc(S(F)(F)(F)(F)F)cc2)C2CC2)[C@H](CC)CN1c1nc(=O)n(C)c2ccc(C#N)nc12` (stereo in doubt) [Compound 117], the IC50 against DGKz turned out to be 200 nM; against DGKa [1], 18 nM.

As for `CC[C@H]1CN([C@@H](c2ccc(S(F)(F)(F)(F)F)cc2)C2CC2)[C@H](CC)CN1c1nc(=O)n(C)c2ccc(C#N)nc12` (stereo in doubt) [Compound 118], the values for the IC50 against DGKz and against DGKa [1] were 610 nM and 22 nM, respectively.

Take `Cn1c(=O)nc(N2CCC3(CCN(c4ccc(OC(F)(F)F)cc4)C3)CC2)c2nc(C#N)ccc21` [Compound 8]: the figures for the IC50 at DGKz and against DGKa [2] were 547 nM and 579 nM, respectively.

With `Cc1ccccc1-n1cc(C2CCN(c3nc(=O)n(C)c4ccc(C#N)nc34)CC2)cn1` [Compound 12], the IC50 on DGKz is above 10000 nM; against DGKa [2], 6600 nM.

As to `Cn1c(=O)c(C(N)=O)c(N2CCC3(CN(c4ccc(OC(F)(F)F)cc4)C3)C2)c2nc(C#N)ccc21` [Compound 15], the results for the half-inhibitory concentration (IC50) on DGKz and against DGKa [2] were above 10000 nM and 19 nM, respectively.

As to `CC[C@@H]1C[C@H](Oc2ccc(OC(F)(F)F)cc2)CCN1c1nc(=O)n(C)c2ccc(C#N)nc12` [Compound 16], the concentration for half-maximal inhibition (IC50) against DGKz is 58 nM; on DGKa [1] it was 926 nM.

For `CC[C@H]1C[C@@H](Oc2ccc(OC(F)(F)F)cc2)CCN1c1nc(=O)n(C)c2ccc(C#N)nc12` [Compound 17], the IC50 on DGKz is 212 nM; on DGKa [1] it was 53 nM. Moreover, the midpoint of the response in the assay on PBMC, the EC50, lay at 401 nM.

For `Cc1ccc2oc(C3CCN(c4nc(=O)n(C)c5ccc(C#N)nc45)CC3)nc2c1` [Compound 20], the IC50 against DGKz was 1840 nM; against DGKa [2], 1160 nM.

On to `Cc1ccc2oc(C3CCN(c4nc(=O)n(C)c5ccc6nncn6c45)CC3)nc2c1` [Compound 22], for which the IC50 against DGKz is above 10000 nM; against DGKa [2] it was 5 nM.

Consider `CC[C@H]1CN([C@H](CC)c2ccc(S(F)(F)(F)(F)F)cc2)[C@H](CC)CN1c1nc(=O)n(C)c2ccc(C#N)nc12` [Compound 29], for which the values for the IC50 at DGKz and against DGKa [1] were 55 nM and 14 nM, respectively.

On to `Cc1ccc2oc(C3CCN(c4nc(=O)n(C)c5cc(O[C@@H]6CCOC6)c(Cl)cc45)CC3)nc2c1` [Compound 32], for which the IC50 at DGKz was above 10000 nM; against DGKa [1], 9 nM.

With `Cc1ccc2oc(C3CCN(c4nc(=O)n(C)c5cc(O[C@H]6CCOC6)c(Cl)cc45)CC3)nc2c1` [Compound 33], the IC50 on DGKz was found to be 60 nM; on DGKa [1] it was 2 nM.

As for `CC[C@H]1CN([C@H](CC)c2ccc(C(F)(F)F)cc2)[C@H](CC)CN1c1nc2nncn2c2ccc(C#N)nc12` [Compound 35], the IC50 amounted to 224 nM at DGKz and 16 nM on DGKa [2].

As to `Cn1c(=O)nc(N2CCCc3c(C#CC4CC4)cccc32)c2nc(C#N)ccc21` [Compound 39], the IC50 on DGKz is 2050 nM; against DGKa [1], 1 nM.

Consider `CC[C@H]1CN([C@H]2CCCCc3cc(C(F)(F)F)ccc32)[C@H](CC)CN1c1nc(=O)n(C)c2ccc(C#N)nc12` [Compound 44], for which the IC50 is 315 nM against DGKz and 40 nM at DGKa [1].

Consider `CC[C@H]1CN([C@@H]2CCCCc3cc(C(F)(F)F)ccc32)[C@H](CC)CN1c1nc(=O)n(C)c2ccc(C#N)nc12` [Compound 45], for which the results for the IC50 on DGKz and at DGKa [1] were 45 nM and 245 nM, respectively. Moreover, the EC50 in the assay on Jurkat cells was found to be 858 nM.

`CC[C@H]1CN([C@H](c2ccc(SC(F)(F)F)cc2)c2nc(C3CC3)cs2)[C@H](CC)CN1c1nc(=O)n(C)c2ccc(C#N)nc12` [Compound 57]: the IC50 against DGKz is 607 nM; at DGKa [1], 24 nM.

Consider `CC[C@H]1CN([C@@H](c2ccc(SC(F)(F)F)cc2)c2nc(C3CC3)cs2)[C@H](CC)CN1c1nc(=O)n(C)c2ccc(C#N)nc12` [Compound 58], for which the IC50 on DGKz is 367 nM; on DGKa [1], 9 nM.

`N#Cc1cc2c3c(n1)c(N1CCC4(CC1)CC(c1ccc(OC(F)(F)F)cc1)=NO4)nc(=O)n3CCO2` [Compound 59]: the IC50 amounted to 162 nM against DGKz and 28 nM against DGKa [1].

With `CC[C@@H]1CN(c2nc(=O)n(C)c3ccc(C#N)nc23)[C@@H](C)CN1C(c1ccc(S(F)(F)(F)(F)F)cc1)c1nc(C2CC2)no1` (some centres unmarked) [Compound 65], the IC50 worked out at 59 nM against DGKz and 14 nM on DGKa [1].

As to `CC[C@@H]1CN(c2nc(=O)n(C)c3ccc(C#N)nc23)[C@@H](C)CN1[C@H](c1ccc(F)cc1)c1ccc(SC(F)(F)F)cn1` [Compound 73], the IC50 against DGKz amounted to 58 nM; against DGKa [1], 15 nM.

Turning to `CC[C@@H]1CN(c2nc3nncn3c3ccc(C#N)nc23)[C@@H](CC)CN1C(=O)c1ccc(C(F)(F)F)cc1` [Compound 84], the IC50 is 1160 nM at DGKz and 9 nM against DGKa [1].

On to `CC[C@@H]1CN(c2nc3nncn3c3ccc(C#N)nc23)[C@@H](CC)CN1C(=O)Cc1ccc(C(F)(F)F)cc1` [Compound 85], for which the IC50 turned out to be 770 nM against DGKz and 18 nM against DGKa [1].

Consider `CC[C@H]1CN([C@H](CC)c2ccc(S(F)(F)(F)(F)F)cc2)[C@H](CC)CN1c1nc2nncn2c2ccc(C#N)nc12` [Compound 87], for which the IC50 at DGKz is 93 nM; on DGKa [1], 2 nM.

Take `CC[C@@H]1C[C@H](c2nc3cc(C)ccc3o2)CCN1c1nc(=O)n(C)c2cc(O[C@H]3CCOC3)c(Cl)cc12` [Compound 91]: the IC50 at DGKz was found to be 6060 nM; on DGKa [1], 29 nM.

As for `CC[C@@H]1C[C@H](c2nc3cc(C)ccc3o2)CCN1c1nc(=O)n(C)c2cc(O[C@@H]3CCOC3)c(Cl)cc12` [Compound 92], the IC50 was 6 nM at DGKz and 227 nM against DGKa [1].

For `CC[C@@H]1CN2c3c(c(=O)n(C)c4ccc(C#N)nc34)OC[C@@H]2CN1[C@@H](CC)c1ccc(SC(F)(F)F)cc1` [Compound 123], the IC50 at DGKz is 798 nM; at DGKa [1], 78 nM.

Take `CC[C@@H]1CN2c3c(c(=O)n(C)c4ccc(C#N)nc34)OC[C@@H]2CN1[C@H](CC)c1ccc(SC(F)(F)F)cc1` [Compound 124]: the IC50 against DGKz was determined as 114 nM; against DGKa [1] it was 6 nM.
